Values after ≈ are worked out from the molar mass of the structure shown.
Assays:
Type in all cases: functional
Staphylococcus aureus [1] = assay: Antibacterial activity against Staphylococcus aureus ATCC 25923 assessed as inhibition of bacterial growth incubated for 18 hrs by two fold broth microdilution assay
Pseudomonas aeruginosa [2] = assay: Antibacterial activity against Pseudomonas aeruginosa assessed as inhibition of bacterial growth incubated for 18 hrs by two fold broth microdilution assay
Staphylococcus aureus [3] = assay: Antibacterial activity against Staphylococcus aureus ATCC 29213 assessed as inhibition of bacterial growth incubated for 18 hrs by two fold broth microdilution assay
Enterococcus faecalis = assay: Antibacterial activity against Enterococcus faecalis assessed as inhibition of bacterial growth incubated for 18 hrs by two fold broth microdilution assay
Acinetobacter baumannii = assay: Antibacterial activity against Acinetobacter baumannii assessed as inhibition of bacterial growth incubated for 18 hrs by two fold broth microdilution assay
Escherichia coli [4] = assay: Antibacterial activity against Escherichia coli ATCC 25922 assessed as inhibition of bacterial growth incubated for 18 hrs by two fold broth microdilution assay
Staphylococcus aureus [5] = assay: Antibacterial activity against Staphylococcus aureus assessed as inhibition of bacterial growth incubated for 18 hrs by two fold broth microdilution assay
Pseudomonas aeruginosa [6] = assay: Antibacterial activity against Pseudomonas aeruginosa ATCC 27853 assessed as inhibition of bacterial growth incubated for 18 hrs by two fold broth microdilution assay
Staphylococcus aureus [7] = assay: Antibacterial activity against methicilin-resistant Staphylococcus aureus N315 assessed as inhibition of bacterial growth incubated for 18 hrs by two fold broth microdilution assay
Escherichia coli [8] = assay: Antibacterial activity against Escherichia coli assessed as inhibition of bacterial growth incubated for 18 hrs by two fold broth microdilution assay
Klebsiella pneumoniae = assay: Antibacterial activity against Klebsiella pneumoniae assessed as inhibition of bacterial growth incubated for 18 hrs by two fold broth microdilution assay

Compound | MIC (Staphylococcus aureus [1]) | MIC (Pseudomonas aeruginosa [2]) | MIC (Staphylococcus aureus [3]) | MIC (Enterococcus faecalis) | MIC (Acinetobacter baumannii) | MIC (Escherichia coli [4]) | MIC (Staphylococcus aureus [5]) | MIC (Pseudomonas aeruginosa [6]) | MIC (Staphylococcus aureus [7]) | MIC (Escherichia coli [8]) | MIC (Klebsiella pneumoniae)
Cn1cc(/C=C(\C#N)S(=O)(=O)c2ccc(N)cc2)c2ccccc21 | 128 µg/mL (≈ 379 µM) | 64 µg/mL (≈ 190 µM) | 32 µg/mL (≈ 94.8 µM) | 256 µg/mL (≈ 759 µM) | 2 µg/mL (≈ 5.93 µM) | 2 µg/mL (≈ 5.93 µM) | 256 µg/mL (≈ 759 µM) | 64 µg/mL (≈ 190 µM) | 128 µg/mL (≈ 379 µM) | 64 µg/mL (≈ 190 µM) | 4 µg/mL (≈ 11.9 µM)
CCCCCCn1cc(/C=C(\C#N)S(=O)(=O)c2ccc(NC(C)=O)cc2)c2ccccc21 | 4 µg/mL (≈ 8.9 µM) | 4 µg/mL (≈ 8.9 µM) | 1 µg/mL (≈ 2.22 µM) | 4 µg/mL (≈ 8.9 µM) | 8 µg/mL (≈ 17.8 µM) | 8 µg/mL (≈ 17.8 µM) | 256 µg/mL (≈ 569 µM) | 8 µg/mL (≈ 17.8 µM) | 32 µg/mL (≈ 71.2 µM) | 8 µg/mL (≈ 17.8 µM) | 256 µg/mL (≈ 569 µM)
CC(=O)Nc1ccc(S(=O)(=O)/C(C#N)=C/c2cn(Cc3ccc([N+](=O)[O-])cc3)c3ccccc23)cc1 | 256 µg/mL (≈ 511 µM) | 128 µg/mL (≈ 256 µM) | 2 µg/mL (≈ 4 µM) | 128 µg/mL (≈ 256 µM) | 64 µg/mL (≈ 128 µM) | 64 µg/mL (≈ 128 µM) | 256 µg/mL (≈ 511 µM) | 256 µg/mL (≈ 511 µM) | 16 µg/mL (≈ 32 µM) | 256 µg/mL (≈ 511 µM) | 16 µg/mL (≈ 32 µM)
N#C/C(=C\c1c[nH]c2cc(Br)ccc12)S(=O)(=O)c1ccc(N)cc1 | 16 µg/mL (≈ 39.8 µM) | 32 µg/mL (≈ 79.5 µM) | 32 µg/mL (≈ 79.5 µM) | 128 µg/mL (≈ 318 µM) | 8 µg/mL (≈ 19.9 µM) | 128 µg/mL (≈ 318 µM) | 256 µg/mL (≈ 636 µM) | 32 µg/mL (≈ 79.5 µM) | 128 µg/mL (≈ 318 µM) | 32 µg/mL (≈ 79.5 µM) | 16 µg/mL (≈ 39.8 µM)
CC(=O)Nc1ccc(S(=O)(=O)/C(C#N)=C/c2cn(C)c3ccccc23)cc1 | 8 µg/mL (≈ 21.1 µM) | 32 µg/mL (≈ 84.3 µM) | 128 µg/mL (≈ 337 µM) | 128 µg/mL (≈ 337 µM) | 0.5 µg/mL (≈ 1.32 µM) | 0.5 µg/mL (≈ 1.32 µM) | 128 µg/mL (≈ 337 µM) | 64 µg/mL (≈ 169 µM) | 16 µg/mL (≈ 42.2 µM) | 16 µg/mL (≈ 42.2 µM) | 128 µg/mL (≈ 337 µM)
N#C/C(=C\c1cn(CC2CC2)c2ccccc12)S(=O)(=O)c1ccc(N)cc1 | 64 µg/mL (≈ 170 µM) | 64 µg/mL (≈ 170 µM) | 32 µg/mL (≈ 84.8 µM) | 128 µg/mL (≈ 339 µM) | 64 µg/mL (≈ 170 µM) | 16 µg/mL (≈ 42.4 µM) | 32 µg/mL (≈ 84.8 µM) | 16 µg/mL (≈ 42.4 µM) | 128 µg/mL (≈ 339 µM) | 256 µg/mL (≈ 678 µM) | 16 µg/mL (≈ 42.4 µM)
CCCCCn1cc(/C=C(\C#N)S(=O)(=O)c2ccc(NC(C)=O)cc2)c2ccccc21 | 8 µg/mL (≈ 18.4 µM) | 64 µg/mL (≈ 147 µM) | 16 µg/mL (≈ 36.7 µM) | 256 µg/mL (≈ 588 µM) | 64 µg/mL (≈ 147 µM) | 16 µg/mL (≈ 36.7 µM) | 128 µg/mL (≈ 294 µM) | 64 µg/mL (≈ 147 µM) | 256 µg/mL (≈ 588 µM) | 64 µg/mL (≈ 147 µM) | 8 µg/mL (≈ 18.4 µM)
CC(=O)Nc1ccc(S(=O)(=O)/C(C#N)=C/c2cn(Cc3ccc(Cl)cc3Cl)c3ccccc23)cc1 | 64 µg/mL (≈ 122 µM) | 64 µg/mL (≈ 122 µM) | 8 µg/mL (≈ 15.3 µM) | 256 µg/mL (≈ 488 µM) | 8 µg/mL (≈ 15.3 µM) | 64 µg/mL (≈ 122 µM) | 16 µg/mL (≈ 30.5 µM) | 32 µg/mL (≈ 61 µM) | 64 µg/mL (≈ 122 µM) | 256 µg/mL (≈ 488 µM) | 4 µg/mL (≈ 7.63 µM)
CC(=O)Nc1ccc(S(=O)(=O)/C(C#N)=C/c2cn(Cc3ccc(Cl)c(Cl)c3)c3ccccc23)cc1 | 32 µg/mL (≈ 61 µM) | 128 µg/mL (≈ 244 µM) | 4 µg/mL (≈ 7.63 µM) | 128 µg/mL (≈ 244 µM) | 32 µg/mL (≈ 61 µM) | 256 µg/mL (≈ 488 µM) | 128 µg/mL (≈ 244 µM) | 16 µg/mL (≈ 30.5 µM) | 256 µg/mL (≈ 488 µM) | 128 µg/mL (≈ 244 µM) | 64 µg/mL (≈ 122 µM)
N#C/C(=C\c1cn(Cc2ccc([N+](=O)[O-])cc2)c2ccccc12)S(=O)(=O)c1ccc(N)cc1 | 256 µg/mL (≈ 558 µM) | 64 µg/mL (≈ 140 µM) | 128 µg/mL (≈ 279 µM) | 128 µg/mL (≈ 279 µM) | 64 µg/mL (≈ 140 µM) | 128 µg/mL (≈ 279 µM) | 256 µg/mL (≈ 558 µM) | 128 µg/mL (≈ 279 µM) | 128 µg/mL (≈ 279 µM) | 128 µg/mL (≈ 279 µM) | 64 µg/mL (≈ 140 µM)
CC(=O)Nc1ccc(S(=O)(=O)/C(C#N)=C/c2c[nH]c3c(C)cccc23)cc1 | 128 µg/mL (≈ 337 µM) | 64 µg/mL (≈ 169 µM) | 32 µg/mL (≈ 84.3 µM) | 32 µg/mL (≈ 84.3 µM) | 16 µg/mL (≈ 42.2 µM) | 4 µg/mL (≈ 10.5 µM) | 32 µg/mL (≈ 84.3 µM) | 64 µg/mL (≈ 169 µM) | 64 µg/mL (≈ 169 µM) | 4 µg/mL (≈ 10.5 µM) | 4 µg/mL (≈ 10.5 µM)
CN(C)CCn1cc(/C=C(\C#N)S(=O)(=O)c2ccc(N)cc2)c2ccccc21 | 2 µg/mL (≈ 5.07 µM) | 64 µg/mL (≈ 162 µM) | 8 µg/mL (≈ 20.3 µM) | 64 µg/mL (≈ 162 µM) | 16 µg/mL (≈ 40.6 µM) | 256 µg/mL (≈ 649 µM) | 2 µg/mL (≈ 5.07 µM) | 32 µg/mL (≈ 81.1 µM) | 128 µg/mL (≈ 324 µM) | 128 µg/mL (≈ 324 µM) | 128 µg/mL (≈ 324 µM)
N#C/C(=C\c1cn(CCN2CCOCC2)c2ccccc12)S(=O)(=O)c1ccc(N)cc1 | 32 µg/mL (≈ 73.3 µM) | 64 µg/mL (≈ 147 µM) | 64 µg/mL (≈ 147 µM) | 256 µg/mL (≈ 586 µM) | 64 µg/mL (≈ 147 µM) | 0.5 µg/mL (≈ 1.15 µM) | 32 µg/mL (≈ 73.3 µM) | 64 µg/mL (≈ 147 µM) | 16 µg/mL (≈ 36.7 µM) | 16 µg/mL (≈ 36.7 µM) | 128 µg/mL (≈ 293 µM)
CCCCn1cc(/C=C(\C#N)S(=O)(=O)c2ccc(N)cc2)c2ccccc21 | 2 µg/mL (≈ 5.27 µM) | 2 µg/mL (≈ 5.27 µM) | 1 µg/mL (≈ 2.64 µM) | 4 µg/mL (≈ 10.5 µM) | 256 µg/mL (≈ 675 µM) | 4 µg/mL (≈ 10.5 µM) | 2 µg/mL (≈ 5.27 µM) | 4 µg/mL (≈ 10.5 µM) | 256 µg/mL (≈ 675 µM) | 4 µg/mL (≈ 10.5 µM) | 1 µg/mL (≈ 2.64 µM)
N#C/C(=C\c1cn(Cc2ccc(Cl)c(Cl)c2)c2ccccc12)S(=O)(=O)c1ccc(N)cc1 | 16 µg/mL (≈ 33.2 µM) | 31 µg/mL (≈ 64.3 µM) | 4 µg/mL (≈ 8.29 µM) | 128 µg/mL (≈ 265 µM) | 4 µg/mL (≈ 8.29 µM) | 0.5 µg/mL (≈ 1.04 µM) | 128 µg/mL (≈ 265 µM) | 64 µg/mL (≈ 133 µM) | 16 µg/mL (≈ 33.2 µM) | 256 µg/mL (≈ 531 µM) | 4 µg/mL (≈ 8.29 µM)
CCOC(=O)Cn1cc(/C=C(\C#N)S(=O)(=O)c2ccc(NC(C)=O)cc2)c2ccccc21 | 64 µg/mL (≈ 142 µM) | 8 µg/mL (≈ 17.7 µM) | 16 µg/mL (≈ 35.4 µM) | 128 µg/mL (≈ 283 µM) | 128 µg/mL (≈ 283 µM) | 256 µg/mL (≈ 567 µM) | 128 µg/mL (≈ 283 µM) | 128 µg/mL (≈ 283 µM) | 256 µg/mL (≈ 567 µM) | 32 µg/mL (≈ 70.9 µM) | 64 µg/mL (≈ 142 µM)
N#C/C(=C\c1cn(Cc2ccccc2Cl)c2ccccc12)S(=O)(=O)c1ccc(N)cc1 | 1 µg/mL (≈ 2.23 µM) | 16 µg/mL (≈ 35.7 µM) | 2 µg/mL (≈ 4.46 µM) | 16 µg/mL (≈ 35.7 µM) | 16 µg/mL (≈ 35.7 µM) | 64 µg/mL (≈ 143 µM) | 1 µg/mL (≈ 2.23 µM) | 2 µg/mL (≈ 4.46 µM) | 256 µg/mL (≈ 571 µM) | 32 µg/mL (≈ 71.4 µM) | 1 µg/mL (≈ 2.23 µM)
C#CCn1cc(/C=C(\C#N)S(=O)(=O)c2ccc(N)cc2)c2ccccc21 | 16 µg/mL (≈ 44.3 µM) | 0.5 µg/mL (≈ 1.38 µM) | 2 µg/mL (≈ 5.53 µM) | 2 µg/mL (≈ 5.53 µM) | 0.5 µg/mL (≈ 1.38 µM) | 256 µg/mL (≈ 708 µM) | 4 µg/mL (≈ 11.1 µM) | 4 µg/mL (≈ 11.1 µM) | 2 µg/mL (≈ 5.53 µM) | 128 µg/mL (≈ 354 µM) | 8 µg/mL (≈ 22.1 µM)
N#C/C(=C\c1cn(CC2CCCC2)c2ccccc12)S(=O)(=O)c1ccc(N)cc1 | 256 µg/mL (≈ 631 µM) | 64 µg/mL (≈ 158 µM) | 16 µg/mL (≈ 39.5 µM) | 32 µg/mL (≈ 78.9 µM) | 32 µg/mL (≈ 78.9 µM) | 8 µg/mL (≈ 19.7 µM) | 256 µg/mL (≈ 631 µM) | 64 µg/mL (≈ 158 µM) | 256 µg/mL (≈ 631 µM) | 256 µg/mL (≈ 631 µM) | 4 µg/mL (≈ 9.86 µM)
C=CCn1cc(/C=C(\C#N)S(=O)(=O)c2ccc(N)cc2)c2ccccc21 | 4 µg/mL (≈ 11 µM) | 64 µg/mL (≈ 176 µM) | 4 µg/mL (≈ 11 µM) | 8 µg/mL (≈ 22 µM) | 64 µg/mL (≈ 176 µM) | 16 µg/mL (≈ 44 µM) | 64 µg/mL (≈ 176 µM) | 8 µg/mL (≈ 22 µM) | 32 µg/mL (≈ 88 µM) | 8 µg/mL (≈ 22 µM) | 8 µg/mL (≈ 22 µM)

Source: ChEMBL document CHEMBL5625248, “Identification of unique indolylcyanoethylenyl sulfonylanilines as novel structural scaffolds of potential antibacterial agents” (Eur J Med Chem, 2023)
